In brackets after ≈: the same amount, converted by molar mass.
Assays:
[1] = target: T1, Enoyl-[acyl-carrier-protein] reductase [NADH] (Mycobacterium tuberculosis) (UniProt P9WGR1); experiment: Inhibition of replicating Mycobacterium tuberculosis H37Rv InhA assessed as cell growth inhibition after 7 days by MABA method
T1 sequence (whole entry): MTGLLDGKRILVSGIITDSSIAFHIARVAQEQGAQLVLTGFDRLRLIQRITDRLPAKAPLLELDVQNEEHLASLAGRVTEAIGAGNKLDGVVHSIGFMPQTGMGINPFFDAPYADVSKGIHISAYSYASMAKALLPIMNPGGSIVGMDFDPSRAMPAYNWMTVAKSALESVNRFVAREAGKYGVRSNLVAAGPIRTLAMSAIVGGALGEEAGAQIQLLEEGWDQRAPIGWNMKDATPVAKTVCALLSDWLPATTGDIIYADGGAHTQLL

[2] = Cytotoxicity against HEK293 cells assessed as inhibition of cell viability at 25 ug/ml after 48 hrs by MTT assay relative to control; assay type: cell-based; conditions: human, read-out: INH

With `O=C(NNc1nc2ccccc2s1)c1ccc(-c2ccccc2)o1` the MIC [1] was 25 µg/mL (≈ 74.5 µM).
For `O=C(NNC(=O)[C@H](Cc1ccc(O)cc1)NC(=O)c1ccc(Br)o1)c1ccc(Cl)cc1`, the MIC [1] was 12.5 µg/mL (≈ 24.7 µM).
Compound `Cc1ccc(C(=O)NNC(=O)[C@H](Cc2ccc(O)cc2)NC(=O)c2ccc(-c3ccccc3)o2)cc1` has an MIC [1] of 12.5 µg/mL (≈ 25.9 µM).
With `COc1ccc(C(=O)NNC(=O)[C@H](Cc2ccc(O)cc2)NC(=O)c2ccc(-c3ccc(F)cc3)s2)cc1` the MIC [1] was 1.56 µg/mL (≈ 2.92 µM) and the cytotoxicity at 48 h, 25 ug/ml [2] was 23.6%.
With `CSc1ccc(-c2ccc(C(=O)NNC(=O)c3ccc(C(C)(C)C)cc3)o2)cc1` the MIC [1] was 6.25 µg/mL (≈ 15.3 µM) and the cytotoxicity at 48 h, 25 ug/ml [2] was 10.6%.
In the case of `O=C(N[C@@H](Cc1ccc(O)cc1)C(=O)NNC(=O)c1ccccc1F)c1ccc(-c2ccc(F)cc2)s1`, the MIC [1] is reported as greater than 25 µg/mL.
With `COc1ccc(C(=O)NNC(=O)c2ccc(-c3ccccc3SC)s2)cc1` the MIC [1] was greater than 25 µg/mL.
`O=C(NNC(=O)[C@H](Cc1ccc(O)cc1)NC(=O)c1ccc(-c2ccc(F)cc2)o1)c1ccc(Br)cc1` showed an MIC [1] of 25 µg/mL (≈ 44.1 µM).
Work on `COc1ccccc1C(=O)NNC(=O)c1ccc(-c2ccc(SC)cc2)o1` yielded an MIC [1] of 12.5 µg/mL (≈ 32.7 µM).
In the case of `O=C(NNC(=O)[C@H](Cc1ccc(O)cc1)NC(=O)c1ccc(-c2ccccc2)o1)c1ccc(Br)cc1`, the MIC [1] is reported as 0.78 µg/mL (≈ 1.42 µM) and the cytotoxicity at 48 h, 25 ug/ml [2] is reported as 16.3%.
In the case of `O=C(NNC(=O)[C@H](Cc1ccc(O)cc1)NC(=O)c1ccc(-c2ccc(F)cc2)s1)c1ccc(F)cc1`, the MIC [1] is reported as 6.25 µg/mL (≈ 12 µM) and the cytotoxicity at 48 h, 25 ug/ml [2] is reported as 22.9%.
With `CC(C)(C)c1ccc(C(=O)NNC(=O)[C@H](Cc2ccc(O)cc2)NC(=O)c2ccc(-c3ccccc3)o2)cc1` the MIC [1] was 0.78 µg/mL (≈ 1.48 µM) and the cytotoxicity at 48 h, 25 ug/ml [2] was 18.7%.
`CSc1ccc(-c2ccc(C(=O)NNC(=O)c3ccc(O)cc3)o2)cc1` showed an MIC [1] of 0.78 µg/mL (≈ 2.12 µM) and a cytotoxicity at 48 h, 25 ug/ml [2] of 17.4%.
With `COc1ccc(C(=O)NNC(=O)[C@H](Cc2ccc(O)cc2)NC(=O)c2ccc(Br)o2)cc1` the MIC [1] was greater than 25 µg/mL.
In the case of `CO[C@H]1/C=C/O[C@@]2(C)Oc3c(C)c(O)c4c(O)c(c(/C=N/N5CCN(C)CC5)c(O)c4c3C2=O)NC(=O)/C(C)=C\C=C\[C@H](C)[C@H](O)[C@@H](C)[C@@H](O)[C@@H](C)[C@H](OC(C)=O)[C@@H]1C`, the MIC [1] is reported as 0.2 µg/mL (≈ 0.243 µM).
With `CC[C@@H](CO)NCCN[C@@H](CC)CO` the MIC [1] was 1.56 µg/mL (≈ 7.64 µM).
With `O=C(NNC(=O)[C@H](Cc1ccc(O)cc1)NC(=O)c1ccc(Br)o1)c1ccc(F)cc1` the MIC [1] was greater than 25 µg/mL.
Compound `Cc1ccc(C(=O)NNC(=O)c2ccc(-c3ccccc3S(C)(=O)=O)o2)cc1` has an MIC [1] of 3.12 µg/mL (≈ 7.84 µM) and a cytotoxicity at 48 h, 25 ug/ml [2] of 22.9%.
Compound `CSc1ccc(-c2ccc(C(=O)NNC(=O)c3ccco3)o2)cc1` has an MIC [1] of 6.25 µg/mL (≈ 18.3 µM) and a cytotoxicity at 48 h, 25 ug/ml [2] of 11.6%.
Compound `O=C(NNC(=O)[C@H](Cc1ccc(O)cc1)NC(=O)c1ccc(-c2ccc(F)cc2)s1)c1ccc(Cl)cc1` has an MIC [1] of 0.78 µg/mL (≈ 1.45 µM) and a cytotoxicity at 48 h, 25 ug/ml [2] of 17%.
For `CSc1ccc(-c2ccc(C(=O)NNC(=O)c3ccccc3F)o2)cc1`, the MIC [1] was 6.25 µg/mL (≈ 16.9 µM) and the cytotoxicity at 48 h, 25 ug/ml [2] was 16.9%.
`CC(C)(C)c1ccc(C(=O)NNC(=O)[C@H](Cc2ccc(O)cc2)NC(=O)c2ccc(Br)o2)cc1` gave an MIC [1] of 3.12 µg/mL (≈ 5.91 µM) and a cytotoxicity at 48 h, 25 ug/ml [2] of 26.6%.
Compound `NNC(=O)c1ccncc1` has an MIC [1] of 0.1 µg/mL (≈ 0.729 µM).
Compound `COc1ccc(C(=O)NNC(=O)[C@H](Cc2ccc(O)cc2)NC(=O)c2ccc(-c3ccc(OC)cc3)o2)cc1` has an MIC [1] of 0.78 µg/mL (≈ 1.47 µM) and a cytotoxicity at 48 h, 25 ug/ml [2] of 29.9%.
`COc1ccc(C(=O)NNC(=O)c2ccc(-c3ccc(SC)cc3)o2)cc1` showed an MIC [1] of 0.78 µg/mL (≈ 2.04 µM) and a cytotoxicity at 48 h, 25 ug/ml [2] of 17.4%.
`CSc1ccc(-c2ccc(C(=O)NNC(=O)c3ccc(F)cc3)o2)cc1` gave an MIC [1] of 0.39 µg/mL (≈ 1.05 µM) and a cytotoxicity at 48 h, 25 ug/ml [2] of 27%.
